{
  "source": "patent US9700637B2",
  "about": "“Reaction-based fluorescent probes for detecting zinc” (Massachusetts Institute of Technology, priority 2013, dated 2017)",
  "key": {"[1]": {"conditions": "cited from earlier work"}, "[2]": {"test": "Deacetylation kinetics monitored by UV-vis absorbance (metal-mediated and uncatalyzed hydrolysis)", "format": "physicochemical", "conditions": "2.75 μM, 125 μM ZnCl2, 37° C., 50 mM PIPES pH 7, 100 mM KCl, absorbance 510 nm", "description": "(§1) FIG. 23 depicts kinetic traces for the deacetylation of DA-ZP1-TPP. The half-life for deacetylation of a 2.75 μM solution of DA-ZP1-TPP, at 37° C. in 50 mM PIPES buffer (pH 7) and 100 mM KCl, was measured in the presence of 125 μM ZnCl2 (+Zn), 250 μM EDTA (−Zn), or 1.25 units of porcine liver esterase (Esterase). The change in absorbance at 520 nm (EDTA and esterase) or 510 nm (ZnCl2) was used to monitor the reaction.\nFIG. 26 depicts in vitro characterization of DA-ZP1-A3. (a) UV-vis and (b) fluorescence spectra of a 5 μM solution of DA-ZP1-A3 in buffer (50 mM PIPES, 100 mM KCl; pH 7). Spectra were acquired initially, upon addition of 100 μM ZnCl2, and again after addition of 200 μM EDTA. (c) Time-dependent change in the normalized absorbance of a ca. 5 μM solution DA-ZP1-A3 at 37° C. in buffer (50 mM PIPES, 100 mM KCl; pH 7) in the presence of 100 μM ZnCl2 (λabs=510 nm) or EDTA (λabs=520 nm). (d) Integrated fluorescence intensity of a 1 μM solution of ZP1-A3 (circles) or DA-ZP1-A3 (squares) as a function of pH. […]\nDA-ZP1-TPP has a zinc-induced fluorescence response and is relatively stable to uncatalyzed hydrolysis and esterase activity. […] Other late 3d-block transition metal ions, such as Co(II) and Cu(II), can coordinate to DA-ZP1-TPP but are generally not available in appreciable chelatable quantities within the cell. […]"}, "[3]": {"tested_on": "porcine liver esterase", "test": "Deacetylation by porcine liver esterase (UV-vis absorbance)", "format": "in vitro ADME", "conditions": "1.25 units porcine liver esterase, 37° C., pH 7", "description": "as §1\n(§2) DA-ZP1-TPP has a zinc-induced fluorescence response and is relatively stable to uncatalyzed hydrolysis and esterase activity. […] Other late 3d-block transition metal ions, such as Co(II) and Cu(II), can coordinate to DA-ZP1-TPP but are generally not available in appreciable chelatable quantities within the cell. In addition to monitoring selectivity in the fluorescence response, we used UV-vis spectroscopy to investigate the rate and zinc-specificity of metal-mediated ester hydrolysis. DA-ZP1-TPP deacetylation results in opening of the lactone ring and restoration of conjugation across the xanthene ring. By monitoring the absorbance of the xanthene it system, we could interrogate deacetylation kinetics in a manner that is independent of the fluorescence response. […] To determine whether ester hydrolysis depends on the metal-binding core of DA-ZP1-TPP, we measured the deacetylation kinetics of fluorescein diacetate (DA-FL) under analogous conditions. […]"}, "[4]": {"test": "Metal ion selectivity of fluorescence response", "format": "physicochemical", "conditions": "50 mM PIPES pH 7, 100 mM KCl, 25° C.", "description": "FIG. 22 depicts metal ion selectivity of DA-ZP1-TPP. Average normalized fluorescence intensities for a 1.1 μM solution of DA-ZP1-TPP in 50 mM PIPES buffer (pH 7) with 100 mM KCl at 25° C., after addition of 50 μM-2 mM concentrations of various metal ions (white bars), followed by addition of 50 μM ZnCl2 (black bars). The grey column represents the average sensor intensity after addition of 100 μM EDTA. Data were normalized to initial measured emission intensity at λex=495 nm.\nas §2, with “DA-ZP1-TPP deacetylation results in opening of the lactone ring and restoration of conjugation across the xanthene ring.” left out"}, "[5]": {"tested_on": "PC-3 cells", "test": "Mitochondrial zinc uptake imaging in prostate cells", "format": "cell-based, human", "description": "FIG. 25 depicts decreased mitochondrial zinc uptake in cancerous cell lines. RWPE-1, RWPE-2, and PC-3 prostate cell lines were incubated for 24 h in medium supplemented with (+) and without (−) 50 μM ZnCl2. RWPE-1 is the only cell line that has a statistically significant (p<0.001) increase in mitochondrial zinc uptake when incubated in zinc-enriched media.\nWith a new mitochondrial-targeting sensor in hand, we used DA-ZP1-TPP to investigate the ability of prostate cell lines to accumulate zinc within their mitochondria. RWPE-1 and RWPE-2 are a pair of genetically similar cell lines that retain normal epithelial cell morphology, express cytokeratin markers for prostate epithelial cells, and are hormone sensitive. […] To explore the ability of RWPE-1 and -2 cells to sequester zinc in mitochondria, we measured the fluorescence intensity of DA-ZP1-TPP in both lines after the cells were bathed in normal or zinc-enriched (50 μM ZnCl2) keratinocyte serum-free medium (KSFM) for 24 h prior to imaging. RWPE-1 cells bathed in zinc-enriched medium have a fluorescence signal intensity that is ˜2.3-fold higher than cells bathed in normal medium (FIG. 25). […] Importantly, in both cell lines the observed fluorescence signals from DA-ZP1-TPP are sensitive to ZnPT and TPEN and have good correlation with MitoTracker Red, the Pearson's r values being 0.68±0.09 and 0.59±0.1 for RWPE-1 and -2, respectively. […]"}},
  "data": [
    {"smiles": "O=C(NCC[P+](c1ccccc1)(c1ccccc1)c1ccccc1)c1ccc2c(c1)C1(OC2=O)c2cc(Cl)c(O)c(CN(Cc3ccccn3)Cc3ccccn3)c2Oc2c1cc(Cl)c(O)c2CN(Cc1ccccn1)Cc1ccccn1", "note": "[ZP1-TPP]", "values": [
      {"measurement": "pKa of tertiary nitrogen atoms on the DPA units", "setting": "[1]", "result": 6.96}
    ]},
    {"smiles": "CC(=O)Oc1c(Cl)cc2c(c1CN(Cc1ccccn1)Cc1ccccn1)Oc1c(cc(Cl)c(OC(C)=O)c1CN(Cc1ccccn1)Cc1ccccn1)C21OC(=O)c2ccc(C(=O)NCC[P+](c3ccccc3)(c3ccccc3)c3ccccc3)cc21", "note": "[DA-ZP1-TPP]", "values": [
      {"measurement": "kobs of zinc-induced deacetylation", "setting": "[2]", "result": "0.0855 ± 0.019", "unit": "s⁻¹"},
      {"measurement": "t1/2-Esterase of deacetylation", "setting": "[3]", "result": 2.9, "unit": "h"},
      {"measurement": "metal ion selectivity of fluorescence response", "setting": "[4]", "result": "responds to Zn(II) over biologically relevant cations such as Ca(II) and Mg(II)"},
      {"measurement": "increase in sensor fluorescence intensity, zinc-enriched medium", "setting": "[5]; PC-3, 50 μM ZnCl2, RMPI 1640 with 10% FBS, 24 h", "result": "no statistically significant increase"},
      {"measurement": "increase in fluorescence intensity, zinc-supplemented serum-free medium", "setting": "[5]; PC-3, serum-free RMPI 1640, 15 μM ZnCl2, 3 h", "result": "no statistically significant increase"}
    ]}
  ]
}
